The target in data set [1] is T1, Phosphatidylinositol 4,5-bisphosphate 3-kinase catalytic subunit delta isoform (Homo sapiens, UniProt O00329).
T1 sequence (O00329 whole entry): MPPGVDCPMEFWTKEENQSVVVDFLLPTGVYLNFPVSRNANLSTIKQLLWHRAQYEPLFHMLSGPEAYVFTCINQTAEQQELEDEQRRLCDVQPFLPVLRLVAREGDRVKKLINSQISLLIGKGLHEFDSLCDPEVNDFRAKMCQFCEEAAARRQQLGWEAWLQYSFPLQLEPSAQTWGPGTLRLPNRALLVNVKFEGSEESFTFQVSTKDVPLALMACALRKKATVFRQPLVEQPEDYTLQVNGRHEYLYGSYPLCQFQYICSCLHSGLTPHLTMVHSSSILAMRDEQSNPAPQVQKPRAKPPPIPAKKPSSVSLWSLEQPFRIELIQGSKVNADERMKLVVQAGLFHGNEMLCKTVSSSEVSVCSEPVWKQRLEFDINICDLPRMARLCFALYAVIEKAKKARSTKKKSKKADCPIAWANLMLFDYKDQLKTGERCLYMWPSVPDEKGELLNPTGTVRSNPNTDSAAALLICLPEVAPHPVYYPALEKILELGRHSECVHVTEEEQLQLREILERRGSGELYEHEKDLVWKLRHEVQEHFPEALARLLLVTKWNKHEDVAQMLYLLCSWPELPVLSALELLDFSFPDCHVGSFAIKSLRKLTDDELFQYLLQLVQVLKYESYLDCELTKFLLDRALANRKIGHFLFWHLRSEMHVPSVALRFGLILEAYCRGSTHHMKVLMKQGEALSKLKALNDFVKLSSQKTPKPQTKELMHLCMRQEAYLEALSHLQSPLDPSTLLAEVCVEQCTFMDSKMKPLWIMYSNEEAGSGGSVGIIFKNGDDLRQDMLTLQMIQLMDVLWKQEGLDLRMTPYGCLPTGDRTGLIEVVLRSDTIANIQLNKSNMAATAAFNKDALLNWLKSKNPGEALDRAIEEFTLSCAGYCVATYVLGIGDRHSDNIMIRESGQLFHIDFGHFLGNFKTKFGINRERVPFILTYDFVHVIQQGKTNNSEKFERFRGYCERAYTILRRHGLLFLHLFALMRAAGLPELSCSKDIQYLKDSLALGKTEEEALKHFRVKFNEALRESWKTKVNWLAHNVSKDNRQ
Briefly: biochemical.
Description: Inhibition of human N-terminal poly-His tagged-PI3Kdelta expressed in Sf9 baculovirus system co-expressing p85alpha after 20 mins by AlphaScreen assay

Data set [2] concerns the target Phosphatidylinositol 4,5-bisphosphate 3-kinase catalytic subunit beta isoform (Homo sapiens, UniProt P42338). Briefly: biochemical.
Description: Inhibition of human N-terminal poly-His tagged-PI3Kbeta expressed in Sf9 baculovirus system co-expressing p85alpha after 20 mins by AlphaScreen assay
The target of data set [3] is Phosphatidylinositol 4,5-bisphosphate 3-kinase catalytic subunit gamma isoform (Homo sapiens, UniProt P48736). As to the kind of experiment: biochemical.
Phosphatidylinositol 4,5-bisphosphate 3-kinase catalytic subunit gamma isoform, sequence (P48736 whole entry, canonical isoform): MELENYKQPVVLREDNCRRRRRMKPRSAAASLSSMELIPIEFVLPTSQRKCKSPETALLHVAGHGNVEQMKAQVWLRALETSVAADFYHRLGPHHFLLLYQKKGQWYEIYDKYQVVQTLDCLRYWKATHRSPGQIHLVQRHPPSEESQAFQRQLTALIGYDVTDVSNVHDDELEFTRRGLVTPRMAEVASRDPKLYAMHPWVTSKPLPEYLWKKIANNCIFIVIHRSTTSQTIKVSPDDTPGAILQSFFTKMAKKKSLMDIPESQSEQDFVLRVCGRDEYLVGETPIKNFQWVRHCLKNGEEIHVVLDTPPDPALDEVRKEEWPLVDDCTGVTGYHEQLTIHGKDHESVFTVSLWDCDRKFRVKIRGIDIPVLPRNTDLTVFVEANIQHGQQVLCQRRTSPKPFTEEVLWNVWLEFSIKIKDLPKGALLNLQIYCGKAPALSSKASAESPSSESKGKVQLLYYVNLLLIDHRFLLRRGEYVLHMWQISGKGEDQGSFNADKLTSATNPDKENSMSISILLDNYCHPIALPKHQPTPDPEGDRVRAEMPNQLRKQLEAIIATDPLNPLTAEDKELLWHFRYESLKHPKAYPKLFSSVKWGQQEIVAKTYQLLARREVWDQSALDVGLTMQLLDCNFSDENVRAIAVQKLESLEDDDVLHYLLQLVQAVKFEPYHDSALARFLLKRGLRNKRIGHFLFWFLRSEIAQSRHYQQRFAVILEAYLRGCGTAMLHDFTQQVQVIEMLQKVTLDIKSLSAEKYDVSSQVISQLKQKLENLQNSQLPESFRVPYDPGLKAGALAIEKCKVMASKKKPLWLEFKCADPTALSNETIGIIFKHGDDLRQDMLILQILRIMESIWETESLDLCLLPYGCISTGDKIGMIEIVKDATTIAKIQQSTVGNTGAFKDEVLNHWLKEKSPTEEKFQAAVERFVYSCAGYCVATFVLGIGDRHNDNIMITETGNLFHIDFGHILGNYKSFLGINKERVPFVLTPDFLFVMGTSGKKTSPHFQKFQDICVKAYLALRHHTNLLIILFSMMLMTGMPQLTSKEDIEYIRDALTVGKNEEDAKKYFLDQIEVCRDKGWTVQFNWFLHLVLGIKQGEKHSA
Description: Inhibition of human N-terminal poly-His tagged-PI3Kgamma expressed in Sf9 baculovirus system co-expressing p85alpha after 20 mins by AlphaScreen assay
The nature of data set [4]: in vitro. The note with it: rat, liver microsomes.
Description: Intrinsic clearance in rat liver microsomes
The target in data set [5] is Phosphatidylinositol 4,5-bisphosphate 3-kinase catalytic subunit alpha isoform (Homo sapiens, UniProt P42336). As to the kind of experiment: biochemical.
Phosphatidylinositol 4,5-bisphosphate 3-kinase catalytic subunit alpha isoform, sequence (P42336 whole entry, canonical isoform): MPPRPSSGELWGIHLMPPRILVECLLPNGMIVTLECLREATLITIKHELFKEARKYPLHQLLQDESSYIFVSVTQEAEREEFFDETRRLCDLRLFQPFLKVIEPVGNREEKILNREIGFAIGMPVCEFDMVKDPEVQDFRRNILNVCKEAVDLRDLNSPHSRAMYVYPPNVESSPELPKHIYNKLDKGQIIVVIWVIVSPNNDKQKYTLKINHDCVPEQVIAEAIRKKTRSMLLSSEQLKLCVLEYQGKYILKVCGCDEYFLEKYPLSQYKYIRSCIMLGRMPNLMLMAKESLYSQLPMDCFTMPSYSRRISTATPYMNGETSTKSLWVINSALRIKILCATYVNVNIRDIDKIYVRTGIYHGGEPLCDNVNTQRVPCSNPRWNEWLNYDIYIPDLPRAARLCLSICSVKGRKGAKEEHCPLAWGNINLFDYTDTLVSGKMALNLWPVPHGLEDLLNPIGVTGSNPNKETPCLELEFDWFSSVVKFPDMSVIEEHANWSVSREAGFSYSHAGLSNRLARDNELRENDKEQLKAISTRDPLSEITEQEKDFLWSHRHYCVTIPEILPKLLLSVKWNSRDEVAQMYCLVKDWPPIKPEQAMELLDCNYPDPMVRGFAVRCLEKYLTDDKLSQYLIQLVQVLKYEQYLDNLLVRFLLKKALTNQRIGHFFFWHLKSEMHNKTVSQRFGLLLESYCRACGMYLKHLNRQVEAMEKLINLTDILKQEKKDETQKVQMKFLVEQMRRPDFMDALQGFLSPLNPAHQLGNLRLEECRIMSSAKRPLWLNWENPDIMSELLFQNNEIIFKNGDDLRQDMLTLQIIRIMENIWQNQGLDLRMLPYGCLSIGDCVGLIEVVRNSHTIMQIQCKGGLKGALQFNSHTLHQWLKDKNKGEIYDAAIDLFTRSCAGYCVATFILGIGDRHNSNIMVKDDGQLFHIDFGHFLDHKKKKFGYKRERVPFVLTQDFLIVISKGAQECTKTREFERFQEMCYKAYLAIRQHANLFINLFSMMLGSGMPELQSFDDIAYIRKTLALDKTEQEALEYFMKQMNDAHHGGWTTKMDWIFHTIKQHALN
Description: Inhibition of human N-terminal poly-His tagged-PI3Kalpha expressed in Sf9 baculovirus system co-expressing p85alpha after 20 mins by AlphaScreen assay
For data set [6], the target named is Serine/threonine-protein kinase mTOR (Homo sapiens, UniProt P42345).
Description: Inhibition of recombinant GST-tagged mTOR-mediated 4EBP1 phosphorylation after 90 mins by FRET assay

The structures appear in SMILES notation. Some results are limits rather than exact numbers.

Phosphatidylinositol 4,5-bisphosphate 3-kinase catalytic subunit beta isoform, sequence (P42338 whole entry, canonical isoform): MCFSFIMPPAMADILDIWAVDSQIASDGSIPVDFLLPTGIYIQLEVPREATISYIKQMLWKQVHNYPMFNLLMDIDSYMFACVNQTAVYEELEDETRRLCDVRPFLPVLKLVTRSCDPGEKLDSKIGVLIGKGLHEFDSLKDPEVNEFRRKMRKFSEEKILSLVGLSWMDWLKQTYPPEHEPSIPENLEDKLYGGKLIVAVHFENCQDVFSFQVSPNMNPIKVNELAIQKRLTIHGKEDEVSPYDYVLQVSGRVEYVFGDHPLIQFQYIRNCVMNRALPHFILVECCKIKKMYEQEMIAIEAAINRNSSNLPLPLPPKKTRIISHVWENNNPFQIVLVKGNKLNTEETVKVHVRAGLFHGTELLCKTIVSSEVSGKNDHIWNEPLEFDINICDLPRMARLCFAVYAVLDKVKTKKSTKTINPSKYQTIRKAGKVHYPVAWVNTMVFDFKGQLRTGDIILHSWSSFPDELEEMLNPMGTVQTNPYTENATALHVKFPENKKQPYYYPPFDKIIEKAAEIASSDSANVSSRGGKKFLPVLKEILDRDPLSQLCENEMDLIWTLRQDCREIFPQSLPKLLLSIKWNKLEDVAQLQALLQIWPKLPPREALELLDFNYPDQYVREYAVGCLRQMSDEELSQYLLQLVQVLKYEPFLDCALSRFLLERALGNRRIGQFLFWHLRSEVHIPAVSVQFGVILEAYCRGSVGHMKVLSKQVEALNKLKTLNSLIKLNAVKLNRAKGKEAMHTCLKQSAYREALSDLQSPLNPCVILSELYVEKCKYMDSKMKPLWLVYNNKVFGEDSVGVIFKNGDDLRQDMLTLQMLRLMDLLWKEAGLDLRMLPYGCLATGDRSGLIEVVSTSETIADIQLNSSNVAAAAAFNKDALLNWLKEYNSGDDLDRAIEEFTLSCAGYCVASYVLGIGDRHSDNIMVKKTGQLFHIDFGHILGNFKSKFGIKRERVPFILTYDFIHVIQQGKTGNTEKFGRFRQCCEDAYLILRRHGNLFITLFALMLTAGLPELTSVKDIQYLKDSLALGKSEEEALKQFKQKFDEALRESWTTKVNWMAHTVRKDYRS

With `COc1ccc(Nc2ncc(CN3CCN(S(=O)(=O)N(C)C)CC3)cc2-c2nc(C)nc(N)n2)cn1`, the Ki in data set [1] came out at 6 nM; in data set [2] it was 7 nM; in data set [3], 9 nM. Further, the intrinsic clearance (microsomal CLint) in data set [4] turned out to be 73 µL/min/mg.
Take `COCc1cnc(Nc2ccc(OC)nc2)c(-c2nc(C)nc(N)n2)c1`: the inhibition constant Ki stood at 10 nM in data set [1], 20 nM in data set [2], 49 nM in data set [5] and 9 nM in data set [3]. In addition, the IC50 in data set [6] was greater than 10000 nM. Besides, the microsomal CLint in data set [4] came to 58 µL/min/mg.
For the molecule `COc1ccc(Nc2ncc(-c3ccc(C)nc3)cc2-c2nc(C)nc(N)n2)cn1`, the values for the inhibition constant (Ki) in data set [1] and in data set [2] were 7 nM and 89 nM, respectively. The microsomal CLint in data set [4] was determined as 25 µL/min/mg.
For the molecule `Cc1nc(-c2cccnc2Nc2cccc3[nH]ccc23)c2[nH]cnc2n1`, the inhibition constant (Ki) stood at 360 nM in data set [1], 130 nM in data set [2] and 23 nM in data set [3]. Besides, the IC50 in data set [6] came out at 560 nM. For the same molecule, the intrinsic clearance (microsomal CLint) in data set [4] amounted to 90 µL/min/mg.
In the case of `COc1ccc(Nc2ncc(CN3CCN(C)CC3)cc2-c2nc(C)nc(N)n2)cn1`, the Ki in data set [1] was determined as 34 nM; in data set [2], 44 nM; in data set [3], 130 nM. In addition, the intrinsic clearance (microsomal CLint) in data set [4] is 48 µL/min/mg.
`COc1ccc(Nc2ncc(CN3CCCN(S(C)(=O)=O)CC3)cc2-c2nc(C)nc(N)n2)cn1`: the Ki in data set [1] came out at 21 nM; in data set [2] it was 61 nM; in data set [5] it was 33 nM; in data set [3] it was 46 nM. The molecule also registered an IC50 in data set [6] greater than 10000 nM. The molecule further yielded a microsomal CLint in data set [4] of 242 µL/min/mg.
Turning to `COc1ccc(Nc2ncc(CO)cc2-c2nc(C)nc(N)n2)cn1`, the inhibition constant Ki stood at 20 nM in data set [1], 56 nM in data set [2] and 24 nM in data set [3]. Besides, in data set [4], the microsomal CLint was 43 µL/min/mg.
Consider `COc1ccc(Nc2cnccc2-c2nc(C)nc(N)n2)cn1`, for which the Ki was found to be 240 nM in data set [1], 320 nM in data set [2], 620 nM in data set [5] and 690 nM in data set [3]. Further, in data set [4], the intrinsic clearance (microsomal CLint) worked out at 133 µL/min/mg.
For `COc1ccc(Nc2ncc(Cl)cc2-c2nc(C)nc(N)n2)cn1` the same measures were 39 nM, 38 nM, 290 nM, 40 nM and 58 µL/min/mg.
Take `COc1ccc(Nc2ncc(N3CCN(C)CC3)cc2-c2nc(C)nc(N)n2)cn1`: the inhibition constant Ki in data set [1] is 16 nM; in data set [2] it was 7 nM; in data set [5] it was 39 nM; in data set [3], 21 nM. This molecule also registered an IC50 in data set [6] of 1400 nM. The same molecule gave a microsomal CLint in data set [4] of 23 µL/min/mg.
In the case of `COc1ccc(Nc2ncc(CN3CCC(O)CC3)cc2-c2nc(C)nc(N)n2)cn1`, the Ki in data set [1] is 63 nM; in data set [2], 41 nM; in data set [3], 110 nM. In data set [4], this molecule came in with a microsomal CLint of 23 µL/min/mg.
For `COc1ccc(Nc2ncc(CN3CCCCC3)cc2-c2nc(C)nc(N)n2)cn1` the same measures were 19 nM, 11 nM, 80 nM and 51 µL/min/mg.
As to `COc1ccc(Nc2ncc(C)cc2-c2nc(C)nc(N)n2)cn1`, the figures for the inhibition constant Ki in data set [1], in data set [2] and in data set [3] were 110 nM, 86 nM and 54 nM, respectively. The molecule further returned an IC50 in data set [6] greater than 10000 nM. The molecule further displayed a microsomal CLint in data set [4] of 243 µL/min/mg.
Regarding `COc1ccc(Nc2ncc(CN3CCC3)cc2-c2nc(C)nc(N)n2)cn1`, the Ki in data set [1] came to 50 nM; in data set [2] it was 22 nM; in data set [3], 140 nM. This molecule also showed a microsomal CLint in data set [4] of 37 µL/min/mg.
The matching figures for `COc1ccc(Nc2ncc(CN3CC[C@@H](CO)C3)cc2-c2nc(C)nc(N)n2)cn1`: 51 nM, 59 nM, 100 nM and 20 µL/min/mg.
For the molecule `COc1ccc(Nc2ncc(CN3CCNCC3)cc2-c2nc(C)nc(N)n2)cn1`, the inhibition constant Ki in data set [1] came out at 27 nM; in data set [2], 17 nM; in data set [3], 200 nM. For the same molecule, the microsomal CLint in data set [4] was 35 µL/min/mg.
For the molecule `COc1ccc(Nc2cccnc2-c2nc(C)nc(N)n2)cn1`, the Ki in data set [1] was found to be 910 nM; in data set [2], 610 nM; in data set [5], 1300 nM; in data set [3] it was 480 nM. In data set [6], this molecule yielded an IC50 greater than 10000 nM. The molecule also yielded an intrinsic clearance (microsomal CLint) in data set [4] of 96 µL/min/mg.
`COc1ccc(Nc2ncccc2-c2ncnc3nc[nH]c23)cn1`: the inhibitory constant (Ki) in data set [1] was 5700 nM; in data set [2], greater than 10000 nM; in data set [5], 8300 nM; in data set [3] it was 1100 nM. This molecule registered a microsomal CLint in data set [4] of 109 µL/min/mg.
Turning to `c1cnc(Nc2cccc3n[nH]cc23)c(-c2ncnc3nc[nH]c23)c1`, the values for the inhibition constant (Ki) in data set [1], in data set [2] and in data set [5] were greater than 10000 nM, 9700 nM and greater than 10000 nM, respectively. The IC50 in data set [6] was greater than 10000 nM. The microsomal CLint in data set [4] was 115 µL/min/mg.
With `COc1ccc(Nc2ncc(Cc3ccccc3)cc2-c2nc(C)nc(N)n2)cn1`, the Ki in data set [1] stood at 15 nM; in data set [2], 48 nM; in data set [5] it was 59 nM; in data set [3] it was 11 nM. The intrinsic clearance (microsomal CLint) in data set [4] is 62 µL/min/mg.
`COc1ccc(Nc2ncc(CN3CCS(=O)(=O)CC3)cc2-c2nc(C)nc(N)n2)cn1`: the Ki stood at 13 nM in data set [1], 13 nM in data set [2], 73 nM in data set [5] and 30 nM in data set [3]. For the same molecule, the half-maximal inhibitory concentration (IC50) in data set [6] is greater than 10000 nM. In data set [4], the microsomal CLint is 21 µL/min/mg.
In the case of `COc1ccc(Nc2ncc(-c3cnn(C)c3)cc2-c2nc(C)nc(N)n2)cn1`, the inhibition constant (Ki) in data set [1], in data set [2] and in data set [3] was 6 nM throughout. For the same molecule, the microsomal CLint in data set [4] was 24 µL/min/mg.
With `COc1ccc(Nc2ncc(N3CCOCC3)cc2-c2nc(C)nc(N)n2)cn1`, the Ki in data set [1] was found to be 4 nM; in data set [2], 9 nM; in data set [5] it was 22 nM; in data set [3] it was 4 nM. Besides, the half-inhibitory concentration (IC50) in data set [6] was greater than 10000 nM. Also, the microsomal CLint in data set [4] worked out at 67 µL/min/mg.
As to `COc1cnc(Nc2ccc(OC)nc2)c(-c2nc(C)nc(N)n2)c1`, the Ki in data set [1] came to 7 nM; in data set [2] it was 15 nM; in data set [3], 9 nM. In addition, the microsomal CLint in data set [4] came to 86 µL/min/mg.
Take `COc1ccc(Nc2ncc(CN3CCN(C(=O)N(C)C)CC3)cc2-c2nc(C)nc(N)n2)cn1`: the Ki in data set [1] stood at 3 nM; in data set [2], 16 nM; in data set [5], 84 nM; in data set [3], 8 nM. Further, in data set [6], half-maximal inhibition (IC50) required 1400 nM. The molecule also showed a microsomal CLint in data set [4] of 17 µL/min/mg.
As for `COc1ccc(Nc2ncc(CN3CCC(S(C)(=O)=O)C3)cc2-c2nc(C)nc(N)n2)cn1` (racemic), the inhibitory constant (Ki) came out at 3 nM in data set [1], 5 nM in data set [2] and 5 nM in data set [3]. Further, in data set [4], the intrinsic metabolic clearance (microsomal CLint) worked out at 23 µL/min/mg.
As to `COC(=O)N1CCN(Cc2cnc(Nc3ccc(OC)nc3)c(-c3nc(C)nc(N)n3)c2)CC1`, the Ki in data set [1] was 6 nM; in data set [2] it was 18 nM; in data set [5] it was 94 nM; in data set [3], 18 nM. Half-maximal inhibition in data set [6] (IC50) was put at 3700 nM. The molecule also gave an intrinsic clearance (microsomal CLint) in data set [4] of 20 µL/min/mg.
As for `COc1ccc(Nc2ncc(CN3CCOCC3)cc2-c2nc(C)nc(N)n2)cn1`, the inhibitory constant (Ki) in data set [1] amounted to 18 nM; in data set [2], 7 nM; in data set [3], 17 nM. The microsomal CLint in data set [4] was 31 µL/min/mg.
The matching figures for `COc1ccc(Nc2ncc(C3=CCOCC3)cc2-c2nc(C)nc(N)n2)cn1`: 2 nM, 3 nM, 2 nM and 83 µL/min/mg.
For `COc1ccc(Nc2ncc(CN3CCCC3)cc2-c2nc(C)nc(N)n2)cn1` the same measures were 60 nM, 65 nM, 210 nM and 37 µL/min/mg.
Consider `COCCNCc1cnc(Nc2ccc(OC)nc2)c(-c2nc(C)nc(N)n2)c1`, for which the inhibition constant Ki in data set [1] was 30 nM; in data set [2] it was 67 nM; in data set [3], 99 nM. The molecule further registered an intrinsic clearance (microsomal CLint) in data set [4] of 31 µL/min/mg.
For the molecule `COc1ccc(Nc2ncc(Br)cc2-c2nc(C)nc(N)n2)cn1`, the Ki in data set [1] was determined as 92 nM; in data set [2], 75 nM; in data set [3] it was 22 nM. This molecule also displayed a microsomal CLint in data set [4] of 111 µL/min/mg.

For the origin of these results see ChEMBL document CHEMBL2163268, “Structure-based design of a novel series of potent, selective inhibitors of the class I phosphatidylinositol 3-kinases” (J Med Chem, 2012).
